What was measured:
[1] = target: T1, human PPARα (Homo sapiens, UniProt Q07869); assay: Luciferase assay using human PPARα (Gal4-PPARα ligand binding domain chimeric receptor, CV-1 host cells); assay type: cell-based; settings: PPARα agonistic activity; compound 10 μM; luciferase activity of carbacyclin (10 μM) defined as 1.0; CV-1 cells
T1 construct: expressed in transfected cells; host or cells: CV-1 cells
T1 sequence (Q07869 167-468): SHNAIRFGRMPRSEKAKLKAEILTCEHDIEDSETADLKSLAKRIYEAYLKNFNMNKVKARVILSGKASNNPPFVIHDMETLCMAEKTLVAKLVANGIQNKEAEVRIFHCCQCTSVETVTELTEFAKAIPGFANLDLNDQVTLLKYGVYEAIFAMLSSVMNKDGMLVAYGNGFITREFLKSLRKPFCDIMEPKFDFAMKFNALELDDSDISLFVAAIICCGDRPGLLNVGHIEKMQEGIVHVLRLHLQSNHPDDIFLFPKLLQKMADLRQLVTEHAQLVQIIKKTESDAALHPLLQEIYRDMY

[2] = target: T2, human PPARγ (Homo sapiens, UniProt P37231); assay: Luciferase assay using human PPARγ (Gal4-PPARγ ligand binding domain chimeric receptor, CV-1 host cells); assay type: cell-based; settings: PPARγ agonistic activity; compound 10 μM; luciferase activity of troglitazone (10 μM) defined as 1.0; CV-1 cells
T2 construct: expressed in transfected cells; host or cells: CV-1 cells
T2 sequence (P37231 204-505): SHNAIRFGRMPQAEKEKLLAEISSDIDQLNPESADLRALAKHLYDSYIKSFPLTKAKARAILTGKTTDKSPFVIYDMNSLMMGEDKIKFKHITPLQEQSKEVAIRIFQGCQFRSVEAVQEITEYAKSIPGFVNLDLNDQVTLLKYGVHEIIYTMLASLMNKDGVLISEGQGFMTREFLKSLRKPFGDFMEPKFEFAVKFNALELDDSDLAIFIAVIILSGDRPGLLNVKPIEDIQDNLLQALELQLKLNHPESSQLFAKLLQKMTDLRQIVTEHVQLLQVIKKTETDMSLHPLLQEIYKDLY

[3] = test system: KKAy/Ta mice; assay: Hypoglycemic and hypolipidemic effects in KKAy/Ta mice; assay type: in vivo; settings: male KKAy/Ta mice, food mixture containing 0.03% (w/w) compound (43-47 mg/kg/day conversion value), 4 days; for TG level: control 439 ± 234; for blood sugar level: control 520 ± 147
Source text: Male, 7-weeks old KKAy/Ta mice weighed from 35 to 40 g (five mice per group) were pre-breaded for approximately one week and acclimatized for three days on milled diet. On the first day of the experiment (Day 0), mice were divided into some groups according to weight, plasma glucose and triglyceride (TG) levels to minimize the differences among groups. […] At 13:00 of the third day, blood samples were collected to measure glucose and TG levels. Additionally, there was no significant difference in the food intake between control group (milled diet only) and compounds-treated group (milled diet containing 0.03% compounds).

[4] = test system: SD rats; assay: Hypocholesterolemic and hypolipidemic effects in SD rats given hypercholesterolemic food; assay type: in vivo; settings: male SD rats, orally in 0.5% CMC, then hypercholesterolemic food, blood at 9:00 of the next day; for IG level: control 163 ± 18; for IC level: control 167 ± 13; for NEFA level: control 615 ± 80
Source text: Male, six-weeks old SD rats (five rats per group) were left to take milled diet and water ad libitum and were acclimatized for 1 week.
At 9:00 on the first day of the experiment (Day 0), blood sampling was done from tail vein. The rats were divided into some groups according to body weight, triglyceride (TG), non-esterified fatty acid (NEFA) and total cholesterol (TC) levels to minimize differences of the parameters among the groups. At 17:00 of the day, the compound of the present invention dissolved in 0.5% aqueous solution of carboxymethylcellulose (CMC) was orally administered, and thereafter, with hypercholesterolemic food (5.5% peanut oil, 1.5% cholesterol and 0.5% cholic acid were mixed with milled CRF-1 diet, Charles River Inc.) was given to the rats.
At 9:00 of the next day, blood sampling was done from tail vein. The lipid levels in blood (TG, NEFA and TC levels) after administration of the compounds of the present invention were measured. There was no significant difference of the food intake between the control group (provided only 0.5% CMC) and the group treated with the compounds of the present invention.

| Structure (SMILES) | Relative Activity to a positive control compound (carbacyclin = 1) [1] | Relative Activity to a positive control compound (troglitazone = 1) [2] | TG level [3] [mg/dL] | blood sugar level [3] [mg/dL] | IG level [4] [mg/dL] | IC level [4] [mg/dL] | NEFA level [4] [µEq/l] |
| --- | --- | --- | --- | --- | --- | --- | --- |
| CCc1ccc(-c2nc(Cc3ccc(/C=C/CSCC(=O)O)o3)c(C)o2)cc1 [Example 3(3), 2-((2E)-3-(5-(5-methyl-2-(4-ethylphenyl)oxazol-4-ylmethyl)furan-2-yl)-2-propenylthio)acetic acid] | 1.8 | 2.2 | 31 ± 15 | 234 ± 31 | 79 ± 12 | 91 ± 4 | 213 ± 31 |
| Cc1oc(-c2ccc3c(c2)OCO3)nc1Cc1ccc(/C=C/CSCC(=O)O)o1 [Example 3(2), 2-((2E) -3-(5-(5-methyl-2-(1,3-dioxaindan-5-yl)oxazol-4-ylmethyl)furan-2-yl)-2-propenylthio)acetic acid] | 3.1 | 2.3 | 45 ± 12 | 243 ± 37 | 62 ± 7 | 86 ± 6 | 145 ± 18 |
| Cc1oc(-c2ccccc2)nc1Cc1ccc(/C=C/CSCC(=O)O)o1 [Example 3, 2-((2E)-3-(5-(5-methyl-2-phenyloxazol-4-ylmethyl)furan-2-yl)-2-propenylthio)acetic acid] | 2.6 | 2.3 | 43 ± 12 | 260 ± 37 | 73 ± 7 | 87 ± 5 | 207 ± 25 |
| Cc1ccc(-c2nc(Cc3ccc(/C=C/CSCC(=O)O)o3)c(C)o2)cc1 [Example 3(1), 2-((2E)-3-(5-(5-methyl-2-(4-methylphenyl)oxazol-4-ylmethyl)furan-2-yl)-2-propenylthio)acetic acid] | 1.5 | 1.1 | 44 ± 11 | 253 ± 27 | 92 ± 26 | 107 ± 4 | 394 ± 49 |

— patent US6821994B2, “Carboxylic acid derivative and a pharmaceutical composition containing the derivative as active ingredient” (Ono Pharmaceutical Co., Ltd., priority 1998, dated 2004)
